This data set is described as follows: Kinetic solubility of compound at pH 6.8. The format is physicochemical. The note with it: buffer.
`CC(=O)N[C@H]1Cc2cccc(c2)Oc2cccc(c2)C[C@@H](C(=O)NCC(F)(F)F)NC(=O)[C@H](CCc2ccccc2)NC1=O`: the Kinetic_solubility was less than 1.4 µg/mL.

For `O=C(NCC(F)(F)F)[C@@H]1Cc2cccc(c2)Oc2cccc(c2)C[C@H](N2CCCC2=O)C(=O)N[C@@H](CCc2ccccc2)C(=O)N1`, the Kinetic_solubility was found to be 3.8 µg/mL.

As to `Cn1cc(CNC(=O)[C@@H]2Cc3cccc(c3)Oc3cccc(c3)C[C@H](N3CCCS3(=O)=O)C(=O)N[C@@H](CCN3CCCCC3)C(=O)N2)cn1`, the Kinetic_solubility is greater than 140 µg/mL.

For the molecule `O=C(NCC(F)(F)F)[C@@H]1Cc2cccc(c2)Oc2cccc(c2)C[C@H](N2CCCC2=O)C(=O)N[C@@H](CCN2CCC(F)(F)CC2)C(=O)N1`, the Kinetic_solubility was greater than 140 µg/mL.

As to `CC(=O)N[C@H]1Cc2cccc(c2)Oc2cccc(c2)C[C@@H](C(=O)NCC(F)(F)F)NC(=O)[C@H](CCC(F)(F)F)NC1=O`, the Kinetic_solubility was less than 1.2 µg/mL.

With `O=C(NCC(F)(F)F)[C@@H]1Cc2cccc(c2)Oc2cccc(c2)C[C@H](N2CCCC2=O)C(=O)N[C@@H](CCN2CCC[C@@H](F)C2)C(=O)N1`, the Kinetic_solubility was greater than 130 µg/mL.

With `COC[C@@H]1NC(=O)[C@@H](NC(C)=O)Cc2cccc(c2)Oc2cccc(c2)C[C@@H](C(=O)NCC(F)(F)F)NC1=O`, the Kinetic_solubility stood at 14 µg/mL.

The molecule `C[C@H](NC(=O)[C@@H]1Cc2cccc(c2)Oc2cccc(c2)C[C@H](N2CCCC2=O)C(=O)N[C@@H](CCN2CCCCC2)C(=O)N1)C1CC1` came in with a Kinetic_solubility greater than 120 µg/mL.

As for `O=C(NCC(F)(F)F)[C@@H]1Cc2cccc(c2)Oc2cccc(c2)C[C@H](N2CCCC2=O)C(=O)N[C@@H](Cc2ccccc2)C(=O)N1`, the Kinetic_solubility came to 22 µg/mL.

Molecule `CN1C(=O)[C@H](CCc2ccccc2)NC(=O)[C@@H](N2CCCC2=O)Cc2cccc(c2)Oc2cccc(c2)C[C@H]1C(=O)NCC(F)(F)F` had a Kinetic_solubility of 4.2 µg/mL.

`CC(=O)N[C@H]1Cc2cccc(c2)Oc2cccc(c2)C[C@@H](C(=O)NCC(F)(F)F)NC(=O)[C@H](CC(C)C)NC1=O` showed a Kinetic_solubility of less than 1.4 µg/mL.

For `O=C(NC1CCCC1)[C@@H]1Cc2cccc(c2)Oc2cccc(c2)C[C@H](N2CCCS2(=O)=O)C(=O)N[C@@H](CCN2CCOCC2)C(=O)N1`, the Kinetic_solubility is greater than 130 µg/mL.

`O=C(NCC(F)(F)F)[C@@H]1Cc2cccc(c2)Oc2cccc(c2)C[C@H](N2CCOC2=O)C(=O)N[C@@H](CCN2CCCCC2)C(=O)N1` registered a Kinetic_solubility of 65 µg/mL.

For `Cn1cc(CNC(=O)[C@@H]2Cc3cccc(c3)Oc3cccc(c3)C[C@H](N3CCCC3=O)C(=O)N[C@@H](CCN3CCCCC3)C(=O)N2)cn1`, the Kinetic_solubility is greater than 150 µg/mL.

The molecule `O=C(NC1CCCC1)[C@@H]1Cc2cccc(c2)Oc2cccc(c2)C[C@H](N2CCCC2=O)C(=O)N[C@@H](CCN2CCCCC2)C(=O)N1` registered a Kinetic_solubility greater than 140 µg/mL.

In turn, `O=C(NCC1CC1)[C@@H]1Cc2cccc(c2)Oc2cccc(c2)C[C@H](N2CCCC2=O)C(=O)N[C@@H](CCN2CCCCC2)C(=O)N1` came in with a Kinetic_solubility greater than 130 µg/mL.

`O=C(NCC1CC1)[C@@H]1Cc2cccc(c2)Oc2cccc(c2)C[C@H](N2CCCC2=O)C(=O)N[C@@H](CCN2CCOCC2)C(=O)N1`: the Kinetic_solubility was greater than 130 µg/mL.

For the molecule `CCC[C@@H]1NC(=O)[C@@H](NC(C)=O)Cc2cccc(c2)Oc2cccc(c2)C[C@@H](C(=O)NCC(F)(F)F)NC1=O`, the Kinetic_solubility was less than 1.9 µg/mL.

`CN1C(=O)[C@H](CCc2ccccc2)N(C)C(=O)[C@@H](N2CCCC2=O)Cc2cccc(c2)Oc2cccc(c2)C[C@H]1C(=O)NCC(F)(F)F`: the Kinetic_solubility amounted to 4 µg/mL.

The molecule `CC1(CNC(=O)[C@@H]2Cc3cccc(c3)Oc3cccc(c3)C[C@H](N3CCCC3=O)C(=O)N[C@@H](CCN3CCCCC3)C(=O)N2)CC1` yielded a Kinetic_solubility greater than 130 µg/mL.

The molecule `Cn1cc(CNC(=O)[C@@H]2Cc3cccc(c3)Oc3cccc(c3)C[C@H](NS(C)(=O)=O)C(=O)N[C@@H](CCN3CCCCC3)C(=O)N2)cn1` returned a Kinetic_solubility greater than 140 µg/mL.

Molecule `C[C@@H](NC(=O)[C@@H]1Cc2cccc(c2)Oc2cccc(c2)C[C@H](N2CCCC2=O)C(=O)N[C@@H](CCN2CCCCC2)C(=O)N1)C1CC1` had a Kinetic_solubility greater than 140 µg/mL.

Consider `O=C(NCC(F)(F)F)[C@@H]1Cc2cccc(c2)Oc2cccc(c2)C[C@H](N2CCCC2=O)C(=O)N[C@@H](CCN2CCCCC2)C(=O)N1`, for which the Kinetic_solubility is greater than 140 µg/mL.

(Values after ChEMBL document CHEMBL5316314, “Structure-Activity Relationship Studies of Antimalarial Plasmodium Proteasome Inhibitors─Part II” (J Med Chem, 2023).)
